Results: publication PMC8062851, “2-Methoxyestradiol and its derivatives inhibit store-operated Ca^2+ entry in T cells: Identification of a new and potent inhibitor” (Biochimica et Biophysica Acta. Molecular Cell Research, 2021)
Where two headings read alike, the source gives them in different places.

Tests used:
[1] = tested on: SOCE in human Jurkat T cells; test: cells; type: cell-based; details: Ca2+ free/Ca2+ re-addition protocol, plateau 425-475 s after re-addition of 1 mM Ca2+
Method: Jurkat T-lymphocytes, primary human CD4^+ T cells and H1299 cells were pelleted at 450 ×g for 5 min, rat TMBP at 300 ×g for 8 min at room temperature and were resuspended in 1 ml of either standard JMP medium (Jurkat, H1299 and human CD4^+ T cells) or standard DMEM based medium containing 10% fetal bovine serum (FBS) (v/v) (TMBP cells). Resting TMBP cells (day 5–7 after re-stimulation) after the second to fifth re-stimulation were thawed from liquid nitrogen 12 to 40 h prior to Fura2-loading. After pre-incubation for 5 min at 37 °C, cells were incubated with 4 μM Fura2-AM for 15 min at 37 °C. After addition of the dye, cells were kept in the dark. Afterwards, cells and the dye were diluted by addition of 4 ml standard medium and incubated for another 15 min. Cells were washed twice in Ca^2+ buffer (140 mM NaCl, 5 mM KCl, 1 mM MgSO4, 1 mM CaCl2, 1 mM NaH2PO4, 20 mM HEPES, 5.5 mM glucose; pH 7.4 (NaOH), sterile filtered) and were diluted to a concentration of 2*10^6 cells/ml. Subsequently, cells were kept at room temperature for 20 min for de-esterification before the start of the first measurement.
In experiments using a Ca^2+ free/Ca^2+ re-addition protocol, cells were pelleted as described for Fura2 loading and Ca^2+ buffer was exchanged by 1 ml nominal Ca^2+ free buffer (140 mM NaCl, 5 mM KCl, 1 mM MgSO4, 1 mM NaH2PO4, 20 mM HEPES, 5.5 mM glucose; pH 7.4 (NaOH), sterile filtered) immediately before starting the measurement. The measurement was controlled by FL Solutions (Version 4.1, Hitachi High-Technologies Corporation). Fura2 was alternatively excited every 2 s at 340 ± 5 nm and 380 ± 5 nm, each 400 ms apart.
Finally, every measurement was calibrated using 0.1% (v/v) Triton X-100 to obtain a maximal ratio and 4 mM EGTA and 30 mM Tris to obtain a minimal ratio.
R is the ratio between F340 and F380. Rmin and Rmax are the minimal and maximal ratio, respectively, obtained by calibration. F380 min and F380 max are the minimal and maximal fluorescence intensity at 380 nm EX during the calibration. Finally, artefacts due to compound additions that usually could easily be identified and lasted about 8 s were deleted from the tracings using FL Solutions (Version 4.1, Hitachi High-Technologies Corporation). The fluorescence intensities of deleted data points were interpolated from those just before and after the deleted time points.
Estradiol, 2ME2 and 2ME2 derivatives were dissolved in DMSO at a concentration of 50 mM and stored at −20 °C for up to 6 months. For concentration-response curves, stock solution was freshly diluted with DMSO to obtain the same DMSO concentration of 0.2% (v/v) for all conditions.
The compound concentrations were then log transformed. Finally, the data were fitted to a corresponding nonlinear fit of variable slope using Prism 6 (GraphPad Software, USA).

[2] = tested on: Mn2+ entry into Jurkat T cells; test: Mn2+ quenching of Fura2 after store depletion in Jurkat T cells; type: cell-based, human; details: store depletion by thapsigargin, 10 μM
Method: Mn^2+ quenching of Fura2 was used to analyze influx of divalent cations into Jurkat T cells. Like for Ca^2+ measurements, 10^6 loaded Jurkat T-lymphocytes were pelleted and Ca^2+ buffer was exchanged for nominal Ca^2+ free buffer (see above). Instead of Ca^2+, Mn^2+ was added 1220 s after the start of the measurement. To investigate Mn^2+ quenching independently of any effects of Ca^2+, Fura2 was excited at its isosbestic point, which was experimentally determined to be 357 nm. The emission wavelength was set to 495 nm. In contrast to the Ca^2+ measurement experiments, these measurements were not calibrated.
For quantitative analysis, the velocity of quenching was calculated as the initial slope. After Mn^2+ addition, there was a very fast drop in Fura2 fluorescence in all experiments. This drop lasted for about 10 s and was probably due to quenching of extracellular Fura2. […]
y0 is the fluorescence at the start of the decay, P is the theoretical fluorescence at the end of the decay at infinite times, K is the rate constant, and x is the time. […]
The fluorescence before Mn^2+ addition was fitted to a straight line using the following equation:(4) y’=m·x+c
m is the slope, x is the time and c is the y-intercept. […] So the initial slope (si) after Mn^2+ addition was calculated using the following equation:(5) si=(y0–P)*(-K)*e(-K*1230s)–m

human PBMCs = test: In vitro activation of human PBMCs by anti-CD3, interferon-γ mRNA by qPCR; type: cell-based; details: human PBMC; anti-CD3 stimulation; 24 h; qPCR
Method: In vitro activation assays were performed in 96-well plates. Briefly, 10^5 PBMCs isolated from human peripheral blood by Ficoll gradient were added onto plates coated with anti-human CD3 monoclonal antibody (5 μg ml^−1 in PBS, clone OKT3, Biolegend). 2ME2 or STX564 dissolved in DMSO were added in varying concentrations (0.01, 0.1, 1, 10 μM). […]. PBMC activation on mRNA level was determined using qPCR on samples collected 24 h after CD3 stimulation.
Total RNA was isolated using the standard TRIzol method. cDNA was synthesized using the RevertAid First Strand cDNA Synthesis Kit (Thermo Fisher Scientific). Quantitative PCR (qPCR) was performed using the StepOnePlus™ Real-Time PCR System (Applied Biosystems), as previously described [[23], [24], [25]]. Rat TMBP cell data were obtained from three to four independent duplicate measurements. β-actin served as housekeeping gene. Human PBMC data were obtained from two independent healthy donors and duplicate measurements (representative data of one donor are shown). HPRT served as housekeeping gene. For all probes (TaqMan), a combination of 5′-FAM and 3′-TAMRA quencher was used as described.

SMILES: CCc1cc2c(cc1OS(N)(=O)=O)CC[C@@H]1[C@@H]2CC[C@]2(C)[C@@H](CC#N)CC[C@@H]12 [STX564, 2-ethyl-3-sulfamoyloxy-17β-cyanomethylestra-1,3,5(10)-triene]
- IC50 ([1]; Homo sapiens, Jurkat, read-out: IC50 of SOCE inhibition, Jurkat T cells): 1200 nM
- IC50 ([1]; read-out: IC50 of SOCE inhibition, Jurkat T cells): ~1000 nM
- antagonism of Mn2+ entry (Mn2+ quenching of Fura2) [2]: almost fully
- concentration at which antagonist effects on interferon-γ expression were observed (human PBMCs): ≥ 1 µM
